Values quoted from earlier work, collected in US20260027125A1, “AN ANTIBACTERIAL PARENTERAL FORMULATION AND METHODS THEREOF” (BUGWORKS RESEARCH INDIA PVT. LTD., priority 2022, published 2026).

Details: counter ion selected for salt screening; cited from earlier work

Compound: O=C(O)CC(O)C(=O)O (stereo not shown) [malic acid]
- pKa (second value): 3.4, 5.11
